Values belong to the compound of their own block, whether it stands above or below them.
Legend:
[1] = molecular target: MAP kinase-activated protein kinase 2 (Homo sapiens) (UniProt P49137); experiment: Inhibition of MAPKAPK2 (unknown origin) at 0.078 uM relative to control
[2] = molecular target: Glycogen synthase kinase-3 beta (Homo sapiens) (UniProt P49841); experiment: Inhibition of GSK3b (unknown origin) at 0.078 uM relative to control
[3] = molecular target: Insulin-like growth factor 1 receptor (Homo sapiens) (UniProt P08069); experiment: Inhibition of IGF1R (unknown origin) at 0.078 uM relative to control
[4] = molecular target: T1, Calcium/calmodulin-dependent protein kinase type IV (Homo sapiens) (UniProt Q16566); experiment: Inhibition of CAMK4 (unknown origin) at 0.078 uM relative to control
T1 sequence (whole entry): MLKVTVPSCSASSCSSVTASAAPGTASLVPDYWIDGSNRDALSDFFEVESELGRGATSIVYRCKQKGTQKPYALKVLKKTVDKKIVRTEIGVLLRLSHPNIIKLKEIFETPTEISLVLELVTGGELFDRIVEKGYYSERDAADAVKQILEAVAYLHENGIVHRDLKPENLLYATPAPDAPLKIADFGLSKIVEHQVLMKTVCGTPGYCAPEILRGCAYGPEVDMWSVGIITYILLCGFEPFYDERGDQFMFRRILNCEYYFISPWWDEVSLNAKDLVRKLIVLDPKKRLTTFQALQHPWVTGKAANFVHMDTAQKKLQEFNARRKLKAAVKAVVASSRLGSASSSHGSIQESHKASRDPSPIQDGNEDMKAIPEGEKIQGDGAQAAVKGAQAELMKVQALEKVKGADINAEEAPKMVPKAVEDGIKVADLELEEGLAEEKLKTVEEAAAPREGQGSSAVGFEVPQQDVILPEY

[5] = molecular target: Mitogen-activated protein kinase 1 (Homo sapiens) (UniProt P28482); experiment: Inhibition of Erk2 (unknown origin) at 0.078 uM relative to control
[6] = system: Proto-oncogene tyrosine-protein kinase receptor Ret (Homo sapiens), P07949 [V804L]; experiment: Inhibition of Ret V804L mutant (unknown origin) at 0.49 uM relative to control
Sequence of Proto-oncogene tyrosine-protein kinase receptor Ret (Homo sapiens), P07949 [V804L] (P07949 whole entry V804L): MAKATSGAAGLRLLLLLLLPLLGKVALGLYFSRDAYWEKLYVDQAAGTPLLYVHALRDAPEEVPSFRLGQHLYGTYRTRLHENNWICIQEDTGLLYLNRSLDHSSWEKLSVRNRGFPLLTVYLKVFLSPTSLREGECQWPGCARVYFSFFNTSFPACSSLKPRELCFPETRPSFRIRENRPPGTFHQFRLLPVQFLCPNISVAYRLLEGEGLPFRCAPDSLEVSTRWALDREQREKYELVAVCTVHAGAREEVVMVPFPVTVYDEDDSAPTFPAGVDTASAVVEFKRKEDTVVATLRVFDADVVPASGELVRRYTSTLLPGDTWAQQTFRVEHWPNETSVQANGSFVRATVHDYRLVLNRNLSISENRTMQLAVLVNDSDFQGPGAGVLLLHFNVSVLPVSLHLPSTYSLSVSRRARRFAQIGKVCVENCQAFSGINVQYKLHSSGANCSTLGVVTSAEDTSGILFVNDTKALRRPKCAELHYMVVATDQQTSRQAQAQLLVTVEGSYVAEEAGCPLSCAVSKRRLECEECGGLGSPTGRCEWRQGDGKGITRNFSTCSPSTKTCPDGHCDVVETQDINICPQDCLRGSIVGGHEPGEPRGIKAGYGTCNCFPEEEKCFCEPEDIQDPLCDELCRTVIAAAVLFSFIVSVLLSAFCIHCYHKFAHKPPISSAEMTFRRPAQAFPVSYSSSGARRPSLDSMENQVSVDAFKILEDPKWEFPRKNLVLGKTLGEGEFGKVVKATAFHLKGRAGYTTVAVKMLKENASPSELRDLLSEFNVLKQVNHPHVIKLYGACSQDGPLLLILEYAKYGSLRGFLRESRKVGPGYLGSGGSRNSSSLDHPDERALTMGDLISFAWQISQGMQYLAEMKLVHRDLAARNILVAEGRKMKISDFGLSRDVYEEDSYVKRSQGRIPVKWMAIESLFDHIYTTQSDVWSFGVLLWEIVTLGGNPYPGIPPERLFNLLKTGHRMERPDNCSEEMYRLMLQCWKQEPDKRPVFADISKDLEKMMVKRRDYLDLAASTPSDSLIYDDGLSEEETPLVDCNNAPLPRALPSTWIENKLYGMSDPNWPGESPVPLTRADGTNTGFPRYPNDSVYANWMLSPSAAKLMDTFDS

[7] = system: Proto-oncogene tyrosine-protein kinase receptor Ret (Homo sapiens), P07949 [M918T]; experiment: Inhibition of RET M918T mutant (unknown origin) at 0.49 uM relative to control
Sequence of Proto-oncogene tyrosine-protein kinase receptor Ret (Homo sapiens), P07949 [M918T] (P07949 whole entry M918T): as the sequence (P07949 whole entry V804L) above, with L804V, M918T counted along it

[8] = molecular target: Protein kinase C gamma type (Homo sapiens) (UniProt P05129); experiment: Inhibition of PKC-gamma (unknown origin) at 0.49 uM relative to control
[9] = molecular target: Serine/threonine-protein kinase pim-2 (Homo sapiens) (UniProt Q9P1W9); experiment: Inhibition of PIM2 (unknown origin) at 0.49 uM relative to control
Sequence of Serine/threonine-protein kinase pim-2 (Homo sapiens) (Q9P1W9 whole entry, looked up, canonical isoform): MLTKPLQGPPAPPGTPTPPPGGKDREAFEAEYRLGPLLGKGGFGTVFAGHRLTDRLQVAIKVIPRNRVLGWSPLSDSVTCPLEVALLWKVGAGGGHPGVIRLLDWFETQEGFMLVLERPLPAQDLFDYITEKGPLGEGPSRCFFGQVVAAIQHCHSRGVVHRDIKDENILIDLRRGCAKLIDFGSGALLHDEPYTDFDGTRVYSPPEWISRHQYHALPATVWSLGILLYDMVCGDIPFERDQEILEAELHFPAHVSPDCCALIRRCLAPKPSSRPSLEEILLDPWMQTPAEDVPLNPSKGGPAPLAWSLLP

[10] = molecular target: Casein kinase I isoform delta (Homo sapiens) (UniProt P48730); experiment: Inhibition of CK1-delta (unknown origin) at 0.49 uM relative to control
[11] = molecular target: Ephrin type-A receptor 2 (Homo sapiens) (UniProt P29317); experiment: Inhibition of EPHA2 (unknown origin) at 0.49 uM relative to control
[12] = molecular target: Dual specificity tyrosine-phosphorylation-regulated kinase 2 (Homo sapiens) (UniProt Q92630); experiment: Inhibition of DYRK2 (unknown origin) at 0.49 uM relative to control
[13] = molecular target: Epidermal growth factor receptor (Homo sapiens) (UniProt P00533); experiment: Inhibition of EGFR (unknown origin) at 0.49 uM relative to control
[14] = molecular target: Fibroblast growth factor receptor 1 (Homo sapiens) (UniProt P11362); experiment: Inhibition of FGFR1 (unknown origin) at 0.49 uM relative to control
[15] = molecular target: Ephrin type-B receptor 1 (Homo sapiens) (UniProt P54762); experiment: Inhibition of EPHB1 (unknown origin) at 0.49 uM relative to control
Sequence of Ephrin type-B receptor 1 (Homo sapiens) (P54762 whole entry): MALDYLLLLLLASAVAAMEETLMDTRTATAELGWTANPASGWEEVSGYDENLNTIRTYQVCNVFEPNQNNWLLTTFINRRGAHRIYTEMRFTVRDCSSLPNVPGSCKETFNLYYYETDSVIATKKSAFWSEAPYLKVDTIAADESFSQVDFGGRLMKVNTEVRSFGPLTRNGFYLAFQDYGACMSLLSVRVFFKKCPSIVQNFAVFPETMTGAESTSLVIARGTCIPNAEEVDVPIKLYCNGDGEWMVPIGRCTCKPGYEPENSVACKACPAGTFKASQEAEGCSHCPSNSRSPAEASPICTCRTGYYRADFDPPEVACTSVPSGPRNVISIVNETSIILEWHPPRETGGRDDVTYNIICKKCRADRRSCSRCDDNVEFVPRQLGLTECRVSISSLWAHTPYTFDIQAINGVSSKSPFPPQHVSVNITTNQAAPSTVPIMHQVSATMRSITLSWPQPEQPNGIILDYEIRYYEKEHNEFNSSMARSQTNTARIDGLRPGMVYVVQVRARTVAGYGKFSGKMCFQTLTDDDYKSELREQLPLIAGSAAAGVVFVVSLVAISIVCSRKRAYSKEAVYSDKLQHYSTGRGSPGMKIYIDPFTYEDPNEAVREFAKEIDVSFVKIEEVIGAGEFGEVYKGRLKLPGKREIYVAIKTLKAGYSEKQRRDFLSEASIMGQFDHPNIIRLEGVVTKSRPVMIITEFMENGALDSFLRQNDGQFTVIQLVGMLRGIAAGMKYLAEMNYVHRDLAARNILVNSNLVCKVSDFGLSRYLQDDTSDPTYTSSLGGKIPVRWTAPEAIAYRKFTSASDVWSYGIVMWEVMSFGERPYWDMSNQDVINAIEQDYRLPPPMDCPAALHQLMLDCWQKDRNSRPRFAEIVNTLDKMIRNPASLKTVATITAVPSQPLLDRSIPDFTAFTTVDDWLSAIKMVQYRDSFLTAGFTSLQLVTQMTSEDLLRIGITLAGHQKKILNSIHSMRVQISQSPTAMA

[16] = molecular target: Mitogen-activated protein kinase 12 (Homo sapiens) (UniProt P53778); experiment: Inhibition of p38-gamma (unknown origin) at 0.49 uM relative to control
[17] = molecular target: Calcium/calmodulin-dependent protein kinase type II subunit gamma (Homo sapiens) (UniProt Q13555); experiment: Inhibition of CaMK2-gamma (unknown origin) at 0.49 uM relative to control
[18] = molecular target: Tyrosine-protein kinase ABL2 (Homo sapiens) (UniProt P42684); experiment: Inhibition of Arg (unknown origin) at 0.45 uM relative to control
[19] = molecular target: Tyrosine-protein kinase Fes/Fps (Homo sapiens) (UniProt P07332); experiment: Inhibition of FES (unknown origin) at 0.45 uM relative to control
Sequence of Tyrosine-protein kinase Fes/Fps (Homo sapiens) (P07332 whole entry): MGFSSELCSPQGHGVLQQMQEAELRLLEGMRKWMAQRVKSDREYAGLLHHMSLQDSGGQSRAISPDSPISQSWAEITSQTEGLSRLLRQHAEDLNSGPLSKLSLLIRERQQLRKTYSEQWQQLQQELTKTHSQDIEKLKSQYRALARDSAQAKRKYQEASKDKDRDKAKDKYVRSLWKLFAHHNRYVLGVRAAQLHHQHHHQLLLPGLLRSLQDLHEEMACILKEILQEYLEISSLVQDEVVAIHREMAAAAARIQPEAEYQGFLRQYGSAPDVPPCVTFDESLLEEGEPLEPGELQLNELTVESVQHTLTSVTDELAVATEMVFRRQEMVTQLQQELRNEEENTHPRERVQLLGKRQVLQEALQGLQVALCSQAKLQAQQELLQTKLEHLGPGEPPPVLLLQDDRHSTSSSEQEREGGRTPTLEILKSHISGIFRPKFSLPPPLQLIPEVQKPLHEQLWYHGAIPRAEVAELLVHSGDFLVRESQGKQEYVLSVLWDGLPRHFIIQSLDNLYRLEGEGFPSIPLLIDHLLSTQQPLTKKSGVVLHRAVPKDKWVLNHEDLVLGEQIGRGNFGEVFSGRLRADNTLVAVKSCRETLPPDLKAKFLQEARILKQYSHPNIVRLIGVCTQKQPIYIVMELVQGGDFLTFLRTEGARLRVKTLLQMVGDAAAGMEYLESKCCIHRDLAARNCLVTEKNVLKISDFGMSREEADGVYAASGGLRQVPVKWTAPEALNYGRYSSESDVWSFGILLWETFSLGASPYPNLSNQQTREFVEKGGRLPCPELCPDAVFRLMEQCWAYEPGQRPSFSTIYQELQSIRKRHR

[20] = system: Tyrosine-protein kinase ABL1 (Homo sapiens), P00519 [Q252H]; experiment: Inhibition of Abl Q252H mutant (unknown origin) at 0.45 uM relative to control
[21] = molecular target: Mitogen-activated protein kinase 14 (Homo sapiens) (UniProt Q16539); experiment: Inhibition of p38a (unknown origin) at 0.45 uM relative to control
[22] = molecular target: Casein kinase I isoform alpha (Homo sapiens) (UniProt P48729); experiment: Inhibition of CSNK1A1 (unknown origin) at 0.45 uM relative to control
[23] = molecular target: Cyclin-dependent kinase 1/cyclin B1 (Homo sapiens) (UniProt P06493+P14635); experiment: Inhibition of CDK1/CyclinB (unknown origin) at 0.45 uM relative to control; type: protein-complex assay
[24] = molecular target: Casein kinase I isoform gamma-2 (Homo sapiens) (UniProt P78368); experiment: Inhibition of Casein kinase 1g2 (unknown origin) at 0.45 uM relative to control
[25] = molecular target: Homeodomain-interacting protein kinase 2 (Homo sapiens) (UniProt Q9H2X6); experiment: Inhibition of HIPK2 (unknown origin) at 0.45 uM relative to control
[26] = molecular target: Mast/stem cell growth factor receptor Kit (Homo sapiens) (UniProt P10721); experiment: Inhibition of KIT (unknown origin) at 0.45 uM relative to control
[27] = system: Tyrosine-protein kinase ABL1 (Homo sapiens), P00519 [G250E]; experiment: Inhibition of ABL1 G250E mutant (unknown origin) at 0.45 uM relative to control
[28] = molecular target: Tyrosine-protein kinase Blk (Homo sapiens) (UniProt P51451); experiment: Inhibition of BLK (unknown origin) at 0.45 uM relative to control
[29] = molecular target: Ribosomal protein S6 kinase alpha-2 (Homo sapiens) (UniProt Q15349); experiment: Inhibition of RSK3 (unknown origin) at 0.45 uM relative to control
Sequence of Ribosomal protein S6 kinase alpha-2 (Homo sapiens) (Q15349 whole entry): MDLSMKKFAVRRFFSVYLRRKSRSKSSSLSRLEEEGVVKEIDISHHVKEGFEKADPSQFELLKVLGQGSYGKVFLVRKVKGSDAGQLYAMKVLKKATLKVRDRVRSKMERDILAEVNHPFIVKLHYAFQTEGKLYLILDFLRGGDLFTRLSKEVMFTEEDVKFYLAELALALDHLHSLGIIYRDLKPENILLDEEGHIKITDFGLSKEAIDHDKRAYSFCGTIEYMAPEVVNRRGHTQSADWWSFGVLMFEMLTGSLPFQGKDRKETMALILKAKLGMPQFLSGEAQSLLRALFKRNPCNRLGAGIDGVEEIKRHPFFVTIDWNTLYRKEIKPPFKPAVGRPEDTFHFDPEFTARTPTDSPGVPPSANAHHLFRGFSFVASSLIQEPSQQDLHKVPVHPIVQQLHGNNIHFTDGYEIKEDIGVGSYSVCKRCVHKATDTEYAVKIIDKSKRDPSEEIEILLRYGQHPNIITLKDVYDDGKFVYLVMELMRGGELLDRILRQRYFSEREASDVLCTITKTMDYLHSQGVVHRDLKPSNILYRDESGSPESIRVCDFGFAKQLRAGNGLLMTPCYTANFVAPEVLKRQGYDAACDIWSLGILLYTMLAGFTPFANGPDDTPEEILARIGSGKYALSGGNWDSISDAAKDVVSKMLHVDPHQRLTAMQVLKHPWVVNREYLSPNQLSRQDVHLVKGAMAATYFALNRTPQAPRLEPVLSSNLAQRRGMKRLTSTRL

[30] = molecular target: Serine/threonine-protein kinase 4 (Homo sapiens) (UniProt Q13043); experiment: Inhibition of MST1 (unknown origin) at 0.45 uM relative to control
[31] = molecular target: Tyrosine-protein kinase Fer (Homo sapiens) (UniProt P16591); experiment: Inhibition of Fer (unknown origin) at 0.45 uM relative to control
Sequence of Tyrosine-protein kinase Fer (Homo sapiens) (P16591 whole entry, looked up): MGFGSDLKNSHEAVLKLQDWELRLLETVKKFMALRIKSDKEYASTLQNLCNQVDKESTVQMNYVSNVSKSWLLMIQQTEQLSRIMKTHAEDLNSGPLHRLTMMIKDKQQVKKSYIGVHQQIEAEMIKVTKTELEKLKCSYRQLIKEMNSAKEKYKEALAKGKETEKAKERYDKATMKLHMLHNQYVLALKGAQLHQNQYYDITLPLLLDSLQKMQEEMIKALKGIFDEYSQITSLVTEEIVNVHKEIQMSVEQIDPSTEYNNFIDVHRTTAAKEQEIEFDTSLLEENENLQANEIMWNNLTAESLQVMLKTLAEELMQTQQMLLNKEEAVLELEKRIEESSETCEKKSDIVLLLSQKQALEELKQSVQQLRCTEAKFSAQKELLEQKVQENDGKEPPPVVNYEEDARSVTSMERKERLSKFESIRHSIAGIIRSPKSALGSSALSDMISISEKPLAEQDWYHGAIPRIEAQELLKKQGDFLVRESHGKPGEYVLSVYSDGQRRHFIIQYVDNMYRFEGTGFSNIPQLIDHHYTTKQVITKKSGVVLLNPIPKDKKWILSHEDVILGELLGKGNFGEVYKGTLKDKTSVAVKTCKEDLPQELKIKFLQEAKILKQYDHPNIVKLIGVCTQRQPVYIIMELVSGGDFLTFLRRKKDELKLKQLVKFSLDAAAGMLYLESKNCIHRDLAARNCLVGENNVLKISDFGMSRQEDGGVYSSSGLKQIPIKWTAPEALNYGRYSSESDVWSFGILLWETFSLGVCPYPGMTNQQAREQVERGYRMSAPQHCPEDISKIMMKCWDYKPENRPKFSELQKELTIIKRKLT

[32] = molecular target: RAC-beta serine/threonine-protein kinase (Homo sapiens) (UniProt P31751); experiment: Inhibition of AKT2 (unknown origin) at 0.45 uM relative to control
[33] = molecular target: Ribosomal protein S6 kinase alpha-3 (Homo sapiens) (UniProt P51812); experiment: Inhibition of RSK2 (unknown origin) at 0.45 uM relative to control

inhibition [1]: 4.7% | inhibition [2]: 10% | inhibition [3]: 2.3% | inhibition [4]: 6.7% | inhibition [5]: -0.7%
Compound: COC(=O)Nc1noc2cc(-c3c(-c4ccccn4)n[nH]c3C)ccc12

inhibition [6]: -0.7% | inhibition [7]: 1% | inhibition [8]: 2% | inhibition [9]: -6% | inhibition [10]: 6.7% | inhibition [11]: -0.3% | inhibition [12]: 3.3% | inhibition [13]: -7.3% | inhibition [14]: 0.7% | inhibition [15]: 1.3% | inhibition [16]: -2.3% | inhibition [17]: 6%
Compound: Cc1[nH]nc(C2CC2)c1-c1ccc2c(NC(=O)C3CC3)noc2c1

inhibition [18]: 66.3% | inhibition [19]: -3.3% | inhibition [20]: 72% | inhibition [21]: 1.7% | inhibition [22]: 2.3% | inhibition [23]: 5.3% | inhibition [24]: 0.7% | inhibition [25]: 5% | inhibition [26]: 24.7% | inhibition [27]: 68% | inhibition [28]: 20% | inhibition [29]: 42.7% | inhibition [30]: 33.3% | inhibition [31]: 2.3% | inhibition [32]: -2% | inhibition [33]: 36%
Compound: Cc1n[nH]c(C)c1-c1ccc2c(NC(=O)c3ccc(N4CCN(C)CC4)cc3)n[nH]c2c1

From ChEMBL document CHEMBL4052759, “Discovery of DS79182026: A potent orally active hepcidin production inhibitor” (Bioorg Med Chem Lett, 2017)
